Measured values reported in PMC12133982, “Predominant T-cell epitopes of SARS-CoV-2 restricted by multiple prevalent HLA-B and HLA-C allotypes in Northeast Asia” (Frontiers in Immunology, 2025).
Several values for one entry are separate records, joined by “and”; a condition that tells them apart may be missing. Identical values can stand only once. Peptide text beside a SMILES is read from it.

Columns and labels:
HLA-B1501 = HLA-B1501 (Homo sapiens, UniProt P01889, A329T/A93T/A95T/C349S/D201E/D98Y/E187L/E204Q/E69M/E70A/K202T/N87E/Q94N/R155S/R180W/S121R/S35A/S48A/V306I/V36M/Y140S/Y91S); assay: Competitive peptide binding assay, CIR-B1501; details: HMy2.CIR-B1501 cells, reference Cy5-[…], class from inhibition at 5 and 15 μM, flow cytometry MFI; read-out: Binding affinity with HLA-B1501
Experimental: (§1) Then, competitive peptide binding assays were performed.

HLA-B4403 = HLA-B4403 (Homo sapiens, UniProt P01889, A223V/A65T/A93T/A95T/D201E/D98Y/E176V/E187L/E204Q/E69K/G107R/H137Y/K202T/L105A/L119I/N104T/N87E/Q56L/Q94N/R106L/R155S/R180L/S101N/S121R/S35A/S48T/T118I/V36M/W191S/Y140D/Y91S); assay: Competitive peptide binding assay, CIR-B4403; details: HMy2.CIR-B4403 cells, reference Cy5-CYMEAVAL, class from inhibition at 5 and 15 μM, flow cytometry MFI; read-out: Binding affinity with HLA-B4403
Experimental: as §1

HLA-B4001 = HLA-B4001 (Homo sapiens, UniProt P01889, A65T/A93T/A95T/D138N/D98Y/E176V/E69K/N87E/Q56L/Q94N/R180L/S121R/S35A/S48T/T167S/V36M/W171L/Y33H/Y91S); assay: Competitive peptide binding assay, CIR-B4001; details: HMy2.CIR-B4001 cells, reference Cy5-[…], class from inhibition at 5 and 15 μM, flow cytometry MFI; read-out: Binding affinity with HLA-B4001
Experimental: as §1

HLA-B4601 = HLA-B4601 (Homo sapiens, UniProt P01889, A329T/A93R/C349S/D201E/E100V/E187L/E204Q/E69M/E70A/I90K/K202T/N87E/R155S/R180W/S121R/S35A/S48A/V306I/V36M/Y140S); assay: Competitive peptide binding assay, CIR-B4601; details: for IC50: HMy2.CIR-B4601 cells, reference Cy5-[…], class from inhibition at 5 and 15 μM, flow cytometry MFI, read-out: Binding affinity with HLA-B4601
Experimental: as §1

HLA-B1502 = HLA-B1502 (Homo sapiens, UniProt P01889, A329T/A93T/A95T/C349S/D201E/D98Y/E187L/E204Q/E69M/E70A/H137Y/K202T/L119I/Q94N/R155S/R180L/S121R/S35A/S48A/T118I/V306I/V36M/Y140S/Y91S); assay: Competitive peptide binding assay, CIR-B1502; details: HMy2.CIR-B1502 cells, reference Cy5-[…], class from inhibition at 5 and 15 μM, flow cytometry MFI; read-out: Binding affinity with HLA-B1502
Experimental: as §1

HLA-B3501 = HLA-B3501 (Homo sapiens, UniProt P01889, A329T/A93T/A95T/C349S/D201E/D98Y/E176V/E187L/E204Q/E69T/I218V/K202T/L119I/Q94N/R155S/R180L/S121R/S35A/S48A/T118I/V127L/V306I/V36M/Y140S/Y91F); assay: Competitive peptide binding assay, CIR-B3501; details: HMy2.CIR-B3501 cells, reference Cy5-[…], class from inhibition at 5 and 15 μM, flow cytometry MFI; read-out: Binding affinity with HLA-B3501
Experimental: as §1

HLA-B1302 = HLA-B1302 (Homo sapiens, UniProt P01889, A65T/A93T/A95T/D138N/D201E/D98Y/E176V/E204Q/E69M/E70A/G107R/K202T/L105A/L119W/N104T/N87E/Q94N/R106L/R155S/R169L/R180L/S101N/S121T/S35A/S48T/V127L/V36M/Y140L/Y91S); assay: Competitive peptide binding assay, CIR-B1302; details: HMy2.CIR-B1302 cells, reference Cy5-MMWYWGPSL, class from inhibition at 5 and 15 μM, flow cytometry MFI; read-out: Binding affinity with HLA-B1302
Experimental: as §1

HLA-B5801 = HLA-B5801 (Homo sapiens, UniProt P01889, A329T/C349S/D201E/D98Y/E176V/E187L/E204Q/E69T/G107R/I218V/I90N/K202T/L105A/L119I/N104I/N87E/Q89R/Q94S/R106L/R155S/R180L/R86G/S101N/S121R/S35A/S48A/T118I/V127L/V306I/V36M/Y140S/Y91M); assay: Competitive peptide binding assay, CIR-B5801; details: HMy2.CIR-B5801 cells, reference Cy5-[…], class from inhibition at 5 and 15 μM, flow cytometry MFI; read-out: Binding affinity with HLA-B5801
Experimental: as §1

HLA-B0702 = target: T1, HLA-B0702 (Homo sapiens, UniProt P01889); assay: Competitive peptide binding assay, CIR-B0702; details: HMy2.CIR-B0702 cells, reference Cy5-[…], class from inhibition at 5 and 15 μM, flow cytometry MFI
T1 construct: expressed in transfected cells; host or cells: HMy2.CIR
Experimental: as §1

HLA-B1301 = HLA-B1301 (Homo sapiens, UniProt P01889, A65T/A93T/A95T/D138N/D201E/D98Y/E176V/E204Q/E69M/E70A/G107R/K202T/L105A/L119I/N104T/N87E/Q94N/R106L/R155S/R169L/R180L/S101N/S121R/S35A/S48T/T118I/V127L/V36M/Y140L/Y91S); assay: Competitive peptide binding assay, CIR-B1301; details: HMy2.CIR-B1301 cells, reference Cy5-[…], class from inhibition at 5 and 15 μM, flow cytometry MFI; read-out: Binding affinity with HLA-B1301
Experimental: as §1

| SMILES | IC50 (HLA-B1501) | IC50 (HLA-B4403) | IC50 (HLA-B4001) | IC50 (HLA-B4601) | inhibition at 5 µM (HLA-B4601; read-out: Inhibition % of Cy5-reference peptide binding, CIR-B4601, 5μM peptide) | inhibition at 15 µM (HLA-B4601; read-out: Inhibition % of Cy5-reference peptide binding, CIR-B4601, 15μM peptide) | IC50 (HLA-B1502) | IC50 (HLA-B3501) | IC50 (HLA-B1302) | IC50 (HLA-B5801) | IC50 (HLA-B0702) | IC50 (HLA-B1301) |
| --- | --- | --- | --- | --- | --- | --- | --- | --- | --- | --- | --- | --- |
| CC[C@H](C)[C@H](NC(=O)[C@H](C)NC(=O)[C@H](C)NC(=O)[C@H](CC(N)=O)NC(=O)[C@H](CC(N)=O)NC(=O)[C@H](C)NC(=O)[C@@H]1CCCN1C(=O)[C@@H](N)CC(N)=O)C(=O)N[C@H](C(=O)O)C(C)C [Epitope Y18] (H-NPANNAAIV-OH; N-terminus and C-terminus assumed) | 5 to 15 µM | > 15 µM | > 15 µM | > 15 µM | 12.5% | 42.5% |  |  |  |  |  |  |
| CC[C@H](C)[C@H](NC(=O)[C@H](CC(C)C)NC(=O)[C@H](CCC(N)=O)NC(=O)[C@H](CCC(N)=O)NC(=O)[C@@H](NC(=O)[C@@H](NC(=O)[C@H](Cc1ccc(O)cc1)NC(=O)[C@@H](NC(=O)[C@H](CCC(N)=O)NC(=O)[C@@H](N)CC(C)C)[C@@H](C)O)C(C)C)[C@@H](C)O)C(=O)O [Epitope Y118] (H-LQTYVTQQLI-OH; N-terminus and C-terminus assumed) |  | 5 to 15 µM |  | > 15 µM |  |  | > 15 µM | > 15 µM | < 5 µM and 5 to 15 µM | > 15 µM |  |  |
| CC(C)[C@H](NC(=O)[C@@H](NC(=O)[C@@H](N)Cc1ccccc1)C(C)C)C(=O)N[C@@H](CO)C(=O)N[C@H](C(=O)NCC(=O)N[C@@H](Cc1ccc(O)cc1)C(=O)N[C@@H](Cc1c[nH]cn1)C(=O)N[C@@H](Cc1ccccc1)C(=O)O)[C@@H](C)O [Epitope Y167] (H-FVVSTGYHF-OH; N-terminus and C-terminus assumed) | > 15 µM | > 15 µM |  | 5 to 15 µM |  |  | 5 to 15 µM | 5 to 15 µM |  | > 15 µM | > 15 µM | > 15 µM |
| CC(C)C[C@H](NC(=O)[C@H](CC(N)=O)NC(=O)[C@H](CCCCN)NC(=O)[C@@H](NC(=O)[C@H](CCCNC(=N)N)NC(=O)[C@H](CO)NC(=O)[C@H](Cc1ccc(O)cc1)NC(=O)[C@@H](NC(=O)[C@@H](N)Cc1ccc(O)cc1)C(C)C)C(C)C)C(=O)O [Epitope Y3] (H-YVYSRVKNL-OH; N-terminus and C-terminus assumed) | 5 to 15 µM | < 5 µM |  | > 15 µM |  |  |  | > 15 µM | > 15 µM |  |  | > 15 µM |
| CC(C)C[C@H](NC(=O)[C@H](CC(C)C)NC(=O)[C@H](C)NC(=O)[C@H](CCC(N)=O)NC(=O)[C@H](CCCNC(=N)N)NC(=O)[C@@H](NC(=O)[C@H](CCCNC(=N)N)NC(=O)[C@H](CCC(=O)O)NC(=O)CN)C(C)C)C(=O)O [Epitope Y202] (H-GERVRQALL-OH; N-terminus and C-terminus assumed) | > 15 µM |  |  | 5 to 15 µM |  |  | > 15 µM | > 15 µM | > 15 µM | > 15 µM | > 15 µM | > 15 µM |
